Measured values as given in ChEMBL document CHEMBL5113405, “Discovery, enantioselective synthesis of myrtucommulone E analogues as tyrosyl-DNA phosphodiesterase 2 inhibitors and their biological activities” (Eur J Med Chem, 2022).

Experiments:
[1] = target: T1, Tyrosyl-DNA phosphodiesterase 2 (Homo sapiens, UniProt O95551); experiment: Inhibition of N-terminal His-tagged human TDP2 expressed in Escherichia coli BL21 using 4-nitrophenyl phenylphosphonate as substrate incubated for 60 mins by EDTA based chromogenic assay
T1 sequence (O95551 whole entry): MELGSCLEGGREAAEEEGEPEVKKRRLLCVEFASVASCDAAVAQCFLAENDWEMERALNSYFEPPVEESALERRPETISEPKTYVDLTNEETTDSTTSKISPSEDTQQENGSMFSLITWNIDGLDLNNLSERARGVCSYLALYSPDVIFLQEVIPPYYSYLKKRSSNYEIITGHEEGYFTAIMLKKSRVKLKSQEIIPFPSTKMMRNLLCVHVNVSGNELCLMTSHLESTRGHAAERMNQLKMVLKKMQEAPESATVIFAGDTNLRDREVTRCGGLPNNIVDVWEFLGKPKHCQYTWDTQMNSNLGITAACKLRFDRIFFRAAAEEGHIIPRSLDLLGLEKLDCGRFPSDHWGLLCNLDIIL

DU-145 = experiment: Cytotoxicity against human DU-145 cells assessed as cell growth inhibition for 72 hrs by MTT assay; type: functional
A549 = experiment: Cytotoxicity against human A549 cells assessed as cell growth inhibition for 72 hrs by MTT assay; type: functional

Compound | IC50 [1] | GI50 (DU-145; 72 h) | GI50 (A549; 72 h) | GI50 (DU-145; Homo sapiens, DU-145, 72 h) | GI50 (A549; Homo sapiens, A549, 72 h)
CC(C)C1C2=C(Oc3c1c(O)cc1c3C(C(C)C)C3=C(O1)C(C)(C)C(=O)C(C)(C)C3=O)C(C)(C)C(=O)C(C)(C)C2=O (racemic; form 2) | 32 µM | 15 µM | 44 µM | – | –
CC(C)C(=O)c1c(O)c2c(c3c1OC1=C(C(=O)C(C)(C)C(=O)C1(C)C)[C@@H]3C(C)C)OC1=C(C(=O)C(C)(C)C(=O)C1(C)C)[C@@H]2C(C)C (racemic) | 33 µM | – | – | 26 µM | 37 µM
CC(C)C1C2=C(Oc3c1c(O)cc1c3C(C(C)C)C3=C(O1)C(C)(C)C(=O)C(C)(C)C3=O)C(C)(C)C(=O)C(C)(C)C2=O (racemic; form 1) | 29 µM | – | – | 13 µM | 26 µM
CC(C)[C@@H]1C2=C(Oc3c1c(OCC1CC1)cc1c3[C@@H](C(C)C)C3=C(O1)C(C)(C)C(=O)C(C)(C)C3=O)C(C)(C)C(=O)C(C)(C)C2=O | 42 µM | – | – | 13 µM | 24 µM
COc1ccc(COc2cc3c(c4c2[C@H](C(C)C)C2=C(O4)C(C)(C)C(=O)C(C)(C)C2=O)[C@@H](C(C)C)C2=C(O3)C(C)(C)C(=O)C(C)(C)C2=O)cc1 | 56 µM | – | – | 40 µM | 32 µM
CC(C)[C@@H]1C2=C(Oc3c1c(OCCCc1ccccc1)cc1c3[C@@H](C(C)C)C3=C(O1)C(C)(C)C(=O)C(C)(C)C3=O)C(C)(C)C(=O)C(C)(C)C2=O | 26 µM | – | – | 29 µM | 43 µM
COc1c(C(=O)C(C)C)c2c(c3c1[C@@H](C(C)C)C1=C(O3)C(C)(C)C(=O)C(C)(C)C1=O)[C@@H](C(C)C)C1=C(O2)C(C)(C)C(=O)C(C)(C)C1=O (racemic) | 57 µM | – | – | 20 µM | 32 µM
CC(C)[C@@H]1C2=C(Oc3c1c(OCCCN(C)C)cc1c3[C@@H](C(C)C)C3=C(O1)C(C)(C)C(=O)C(C)(C)C3=O)C(C)(C)C(=O)C(C)(C)C2=O | 10 µM | – | – | 23 µM | 46 µM
CC(COc1cc2c(c3c1[C@H](C(C)C)C1=C(O3)C(C)(C)C(=O)C(C)(C)C1=O)[C@@H](C(C)C)C1=C(O2)C(C)(C)C(=O)C(C)(C)C1=O)CN(C)C (some centres not stated) | 12 µM | – | – | 28 µM | 46 µM
CC(C)[C@@H]1C2=C(Oc3c1c(OCCN(C)C)cc1c3[C@@H](C(C)C)C3=C(O1)C(C)(C)C(=O)C(C)(C)C3=O)C(C)(C)C(=O)C(C)(C)C2=O | 11 µM | – | – | 22 µM | 54 µM
CC(C)[C@@H]1C2=C(Oc3c1c(OCCN1CCOCC1)cc1c3[C@@H](C(C)C)C3=C(O1)C(C)(C)C(=O)C(C)(C)C3=O)C(C)(C)C(=O)C(C)(C)C2=O | 25 µM | – | – | 27 µM | 39.6 µM
CCOc1cc2c(c3c1[C@H](C(C)C)C1=C(O3)C(C)(C)C(=O)C(C)(C)C1=O)[C@@H](C(C)C)C1=C(O2)C(C)(C)C(=O)C(C)(C)C1=O | 21 µM | – | – | 12 µM | 24 µM
CC(C)[C@@H]1C2=C(Oc3c1c(OCCN1CCCC1)cc1c3[C@@H](C(C)C)C3=C(O1)C(C)(C)C(=O)C(C)(C)C3=O)C(C)(C)C(=O)C(C)(C)C2=O | 22 µM | – | – | 22 µM | 46 µM
CC(C)CCOc1cc2c(c3c1[C@H](C(C)C)C1=C(O3)C(C)(C)C(=O)C(C)(C)C1=O)[C@@H](C(C)C)C1=C(O2)C(C)(C)C(=O)C(C)(C)C1=O | 26 µM | – | – | 19 µM | 37 µM
CC(C)[C@@H]1C2=C(Oc3c1c(OCCCN1CCOCC1)cc1c3[C@@H](C(C)C)C3=C(O1)C(C)(C)C(=O)C(C)(C)C3=O)C(C)(C)C(=O)C(C)(C)C2=O | 20 µM | – | – | 26 µM | 65.7 µM
CC(C)C(=O)c1c(O)c2c(c3c1OC1=C(C(=O)C(C)(C)C(=O)C1(C)C)[C@H]3C(C)C)OC1=C(C(=O)C(C)(C)C(=O)C1(C)C)[C@@H]2C(C)C (racemic) | 41 µM | 17 µM | 26 µM | – | –
COc1cc(O)c2c(c1C(=O)C(C)C)OC1=C(C(=O)C(C)(C)C(=O)C1(C)C)[C@@H]2C(C)C | > 100 µM | – | – | 28 µM | 50 µM

Compound | IC50 [1] | GI50 (DU-145; 72 h) | GI50 (A549; 72 h) | GI50 (DU-145; Homo sapiens, DU-145, 72 h) | GI50 (A549; Homo sapiens, A549, 72 h)
CC(C)[C@@H]1C2=C(Oc3c1c(OCCCN1CCCC1)cc1c3[C@@H](C(C)C)C3=C(O1)C(C)(C)C(=O)C(C)(C)C3=O)C(C)(C)C(=O)C(C)(C)C2=O | 19 µM | – | – | 38 µM | 50 µM
CC(C)C(=O)c1c(O)c2c(c3c1OC1=C(C(=O)C(C)(C)C(=O)C1(C)C)[C@@H]3C(C)C)OC1=C(C(=O)C(C)(C)C(=O)C1(C)C)[C@@H]2C(C)C | 48 µM | 15 µM | 28 µM | – | –
CC(C)C(=O)c1c(O)c2c(c3c1OC1=C(C(=O)C(C)(C)C(=O)C1(C)C)[C@@H]3C(C)C)OC1=C(C(=O)C(C)(C)C(=O)C1(C)C)[C@H]2C(C)C | 39 µM | – | – | 31 µM | 62 µM
CC(C)[C@@H]1C2=C(Oc3c1c(OCCC1OCCO1)cc1c3[C@@H](C(C)C)C3=C(O1)C(C)(C)C(=O)C(C)(C)C3=O)C(C)(C)C(=O)C(C)(C)C2=O | 17 µM | – | – | 12 µM | 21 µM
CC(C)[C@@H]1C2=C(Oc3c1c(OCCCN1CCN(C)CC1)cc1c3[C@@H](C(C)C)C3=C(O1)C(C)(C)C(=O)C(C)(C)C3=O)C(C)(C)C(=O)C(C)(C)C2=O | 20 µM | – | – | 51 µM | 63 µM
CC(C)[C@@H]1C2=C(Oc3cc(O)c4c(c31)OC1=C(C(=O)C(C)(C)C(=O)C1(C)C)[C@@H]4C(C)C)C(C)(C)C(=O)C(C)(C)C2=O | 34 µM | – | – | 28 µM | 32 µM
COc1c(C(=O)C(C)C)c2c(c3c1[C@@H](C(C)C)C1=C(O3)C(C)(C)C(=O)C(C)(C)C1=O)[C@H](C(C)C)C1=C(O2)C(C)(C)C(=O)C(C)(C)C1=O (racemic) | 55 µM | – | – | 13 µM | 31 µM
CCOC(CCCOc1cc2c(c3c1[C@H](C(C)C)C1=C(O3)C(C)(C)C(=O)C(C)(C)C1=O)[C@@H](C(C)C)C1=C(O2)C(C)(C)C(=O)C(C)(C)C1=O)OCC | 41 µM | – | – | 27 µM | 62 µM
CC(C)Oc1cc2c(c3c1[C@H](C(C)C)C1=C(O3)C(C)(C)C(=O)C(C)(C)C1=O)[C@@H](C(C)C)C1=C(O2)C(C)(C)C(=O)C(C)(C)C1=O | 28 µM | – | – | 20 µM | 33 µM
CCN(CC)CCOc1cc2c(c3c1[C@H](C(C)C)C1=C(O3)C(C)(C)C(=O)C(C)(C)C1=O)[C@@H](C(C)C)C1=C(O2)C(C)(C)C(=O)C(C)(C)C1=O | 53 µM | – | – | 23 µM | 46 µM
CC(C)C(=O)c1c(O)c2c(c3c1OC1=C(C(=O)C(C)(C)C(=O)C1(C)C)[C@H]3C(C)C)OC1=C(C(=O)C(C)(C)C(=O)C1(C)C)[C@H]2C(C)C | 32 µM | – | – | 38 µM | 65 µM
CCN(CC)CCCOc1cc2c(c3c1[C@H](C(C)C)C1=C(O3)C(C)(C)C(=O)C(C)(C)C1=O)[C@@H](C(C)C)C1=C(O2)C(C)(C)C(=O)C(C)(C)C1=O | 20 µM | – | – | 25 µM | 85 µM
CC(C)[C@H]1C2=C(Oc3c1c(O)cc1c3[C@@H](C(C)C)C3=C(O1)C(C)(C)C(=O)C(C)(C)C3=O)C(C)(C)C(=O)C(C)(C)C2=O | 32 µM | – | – | 16 µM | 38 µM
CC(C)[C@@H]1C2=C(Oc3c1c(O)cc1c3[C@@H](C(C)C)C3=C(O1)C(C)(C)C(=O)C(C)(C)C3=O)C(C)(C)C(=O)C(C)(C)C2=O | 25 µM | – | – | 23 µM | 27 µM
CC(C)C(=O)c1c(O)c2c(c3c1OC1=C(C(=O)C(C)(C)C(=O)C1(C)C)[C@H]3C(C)C)OC1=C(C(=O)C(C)(C)C(=O)C1(C)C)[C@@H]2C(C)C | 50 µM | 41 µM | 60 µM | – | –
COc1cc(O)c2c(c1C(=O)C(C)C)OC1=C(C(=O)C(C)(C)C(=O)C1(C)C)[C@H]2C(C)C | > 100 µM | – | – | 16 µM | 30 µM
Cc1ccc(COc2cc3c(c4c2[C@H](C(C)C)C2=C(O4)C(C)(C)C(=O)C(C)(C)C2=O)[C@@H](C(C)C)C2=C(O3)C(C)(C)C(=O)C(C)(C)C2=O)cc1 | 31 µM | – | – | 15 µM | 29 µM
